One data set relates to human hepatocytes. The experiment in a line: Estimation of covalent binding of small molecules to proteins in hepatocytes (fCVB). The data set is classed as in vitro ADME. To be noted: binding of 3H- or 14C-labelled compound to cryopreserved human hepatocytes. As to the method:
Estimation of Covalent Binding of Small Molecules to Proteins in Hepatocytes:
The assay is based on the modification of a published method (Day, S. H.; Mao, A.; White, R.; Schulz-Utermoehl, T.; Miller, R.; Beconi, M. G. (2005) A semi-automated method for measuring the potential for protein covalent binding in drug discovery. J. Pharmacol. Toxicol. Methods 52, 278-285.). Briefly, cryopreserved human hepatocytes are incubated in the presence of radiolabeled drug candidate in 24-well plates for a pre-determined period to allow sufficient turnover of the parent compound. Following the incubation period, samples are taken out and quenched by cold acetone in order to facilitate precipitation of proteins. […] After solubilization of proteins collected on filter papers, radioactive content and amount of protein is determined to give an estimate of pmol equivalent drug molecule bound per mg protein. In addition to assessing the extent of covalent binding, the turnover of the parent drug is quantified to give an estimate of fraction of metabolites leading to covalent binding (fCVB).
One aspect of the metabolic profile is the formation of reactive metabolites, where compounds of this invention in general are less prone to form such reactive metabolites. […] An fCVB value can then be calculated.
For the compound `COc1ccc(-c2nnc(C(=O)N3CC(Oc4ccc(CN5CC6(CCOC6)C5)cc4)C3)o2)cc1` [Example 5, (3-(4-(6-oxa-2-azaspiro[3.4]octan-2-ylmethyl)phenoxy)azetidin-1-yl)(5-(4-methoxyphenyl)-1,3,4-oxadiazol-2-yl)methanone], the “fCVB value (fraction of metabolites leading to covalent binding)” value is listed as 0.0069.

In another data set the target is Melanin Concentrating Hormone Receptor 1 (MCHR1) (Homo sapiens (Human), UniProt Q99705). In words: MCHR1 receptor activation assay (GTPγ35S). The data set is classed as biochemical.
Sequence of Melanin Concentrating Hormone Receptor 1 (MCHR1) (Q99705 whole entry): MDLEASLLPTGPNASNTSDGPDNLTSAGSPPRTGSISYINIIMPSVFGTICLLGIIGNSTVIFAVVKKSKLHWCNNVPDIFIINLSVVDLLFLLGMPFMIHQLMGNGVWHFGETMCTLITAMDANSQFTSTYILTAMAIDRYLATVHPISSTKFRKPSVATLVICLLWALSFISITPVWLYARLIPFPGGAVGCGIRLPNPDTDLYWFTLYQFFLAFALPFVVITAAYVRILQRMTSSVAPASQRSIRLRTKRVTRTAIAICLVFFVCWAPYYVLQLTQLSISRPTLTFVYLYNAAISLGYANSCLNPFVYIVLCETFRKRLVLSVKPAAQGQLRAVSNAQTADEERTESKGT
Conditions: not given
The compound `O=C(c1nnc(-c2ccccc2)o1)N1CC(Oc2ccc(CN3CCC4(CCOC4)C3)cc2)C1` (centres unmarked) [Example 6, (3-(4-(2-oxa-7-azaspiro[4.4]nonan-7-ylmethyl)phenoxy)azetidin-1-yl)(5-phenyl-1,3,4-oxadiazol-2-yl)methanone] registered an IC50 of 19 nM.

Turning to `COc1ccc(-c2nnc(C(=O)N3CC(Oc4ccc(CN5CCCC56CCOC6)cc4)C3)o2)cc1` (centres unmarked) [Example 14, (3-(4-(7-oxa-1-azaspiro[4.4]nonan-1-ylmethyl)phenoxy)azetidin-1-yl)(5-(4-methoxyphenyl)-1,3,4-oxadiazol-2-yl)methanone], the IC50 worked out at 23 nM.

Turning to `COc1cc(CN2CCCC23COC3)ccc1OC1CN(C(=O)c2nnc(-c3ccc(C(F)F)cc3)o2)C1` [Example 18, (3-(4-(2-oxa-5-azaspiro[3.4]octan-5-ylmethyl)-2-methoxyphenoxy)azetidin-1-yl)(5-(4-(difluoromethyl)phenyl)-1,3,4-oxadiazol-2-yl)methanone], 150 nM corresponded to half-maximal inhibition (IC50).

Turning to `Cc1cc(OC2CN(C(=O)c3nnc(-c4ccccc4)o3)C2)ccc1CN1CC2(CCOC2)C1` [Example 9, (3-(4-(6-oxa-2-azaspiro[3.4]octan-2-ylmethyl)-3-methylphenoxy)azetidin-1-yl)(5-phenyl-1,3,4-oxadiazol-2-yl)methanone], the IC50 was 15 nM.

`O=C(c1nnc(-c2ccccc2)o1)N1CC(Oc2ccc(CN3CCC4(CCCO4)C3)cc2)C1` (centres unmarked) [Example 22, (3-(4-(1-Oxa-7-azaspiro[4.4]nonan-7-ylmethyl)phenoxy)azetidin-1-yl)(5-phenyl-1,3,4-oxadiazol-2-yl)methanone] displayed an IC50 of 23 nM.

Compound `Cc1cc(OC2CN(C(=O)c3nnc(-c4ccccc4)o3)C2)ccc1CN1CC2(CCCO2)C1` [Example 11, (3-(4-(5-oxa-2-azaspiro[3.4]octan-2-ylmethyl)-3-methylphenoxy)azetidin-1-yl)(5-phenyl-1,3,4-oxadiazol-2-yl)methanone] yielded an IC50 of 15 nM.

In turn, `COc1cc(OC2CN(C(=O)c3nnc(-c4ccccc4)o3)C2)ccc1CN1CCCC12COC2` [Example 16, (3-(4-(2-oxa-5-azaspiro[3.4]octan-5-ylmethyl)-3-methoxyphenoxy)azetidin-1-yl)(5-phenyl-1,3,4-oxadiazol-2-yl)methanone] registered an IC50 of 34 nM.

With `COc1cc(OC2CN(C(=O)c3nnc(-c4ccc(C(F)F)cc4)o3)C2)ccc1CN1CCCC12COC2` [Example 19, (3-(4-(2-oxa-5-azaspiro[3.4]octan-5-ylmethyl)-3-methoxyphenoxy)azetidin-1-yl)(5-(4-(difluoromethyl)phenyl)-1,3,4-oxadiazol-2-yl)methanone], the IC50 worked out at 38 nM.

Consider `COc1ccc(-c2nnc(C(=O)N3CC(Oc4ccc(CN5CC6(CCOC6)C5)cc4)C3)o2)cc1` [Example 5, (3-(4-(6-oxa-2-azaspiro[3.4]octan-2-ylmethyl)phenoxy)azetidin-1-yl)(5-(4-methoxyphenyl)-1,3,4-oxadiazol-2-yl)methanone], for which half-maximal inhibition (IC50) required 19 nM.

`O=C(c1nnc(-c2ccccc2)o1)N1CC(Oc2ccc(CN3CCCC34COC4)cc2)C1` [Example 13, (3-(4-(2-oxa-5-azaspiro[3.4]octan-5-ylmethyl)phenoxy)azetidin-1-yl)(5-phenyl-1,3,4-oxadiazol-2-yl)methanone]: the IC50 was 70 nM.

`O=C(c1nnc(-c2ccccc2)o1)N1CC(Oc2ccc(CN3CCCC34CCOC4)cc2)C1` (centres unmarked) [Example 15, (3-(4-(7-oxa-1-azaspiro[4.4]nonan-1-ylmethyl)phenoxy)azetidin-1-yl)(5-phenyl-1,3,4-oxadiazol-2-yl)methanone] had a 50% inhibitory concentration (IC50) of 58 nM.

`COc1cc(CN2CCCC23COC3)ccc1OC1CN(C(=O)c2nnc(-c3ccccc3)o2)C1` [Example 17, (3-(4-(2-oxa-5-azaspiro[3.4]octan-5-ylmethyl)-2-methoxyphenoxy)azetidin-1-yl)(5-phenyl-1,3,4-oxadiazol-2-yl)methanone] yielded an IC50 of 420 nM.

`Cc1cc(OC2CN(C(=O)c3nnc(-c4ccccc4)o3)C2)ccc1CN1CCC2(CCOC2)C1` (centres unmarked) [Example 10, (3-(4-(2-oxa-7-azaspiro[4.4]nonan-7-ylmethyl)-3-methylphenoxy)azetidin-1-yl)(5-phenyl-1,3,4-oxadiazol-2-yl)methanone] came in with an IC50 of 18 nM.

Source of the values: patent publication US8685958B2, “Therapeutic agents” (AstraZeneca AB, priority 2011, dated 2014).
